These results are taken from patent publication US12365695B2, “Fused ring heteroaryl compounds as RIPK1 inhibitors” (BiSiChem Co., Ltd., priority 2019, dated 2025).

The IC50 is the concentration needed to halve the response being measured.

Bounds are passed on as bounds.

The assay concerns HT-29 cells. Briefly: Cell-based necroptosis assay for RIPK1 activity (cell viability, CCK-8). The following applies: HT29 (human colon cancer), Z-VAD-FMK 20 μM, human TNFα 10 ng/ml, SM-164 100 nM, 24 h, read-out: Necroptosis inhibition (IC50). On the procedure:
Human colon carcinoma cell HT-29 (KCLB 30038), BV2 mouse microglial cell (cell was a kind gift from Dr. Nak-Yun Sung, Senior researcher at Korea Prime Pharmacy CO., LTD.) and human microglial cell HMC3 (ATCC® CRL-3304™). HT-29 cell was grown in Roswell Park Memorial Institute (RPMI) 1640, BV2 cell was grown in Dulbecco's Modified Eagle's Medium (DMEM) and HMC3 cell was grown in Minimum Essential Media Eagle (MEM) supplemented with 10% fetal bovine serum and 1% mixture of penicillin and streptomycin (Gibco). Cells were maintained at 37° C. in a humidified 5% CO2 atmosphere.
To measure the activity of RIPK1 inhibitor in necroptotic cells, HT-29 cells were treated by control DMSO, human TNFα (Peprotech, Rocky Hill, USA), SM-164 (Biovision, California, USA) and a pan-caspase inhibitor Z-VAD-FMK (Invivogen, San Diego, USA). Cells were pretreated with Z-VAD-FMK 20 μM. After 30 min, human TNFα 10 ng/ml, SM-164 100 nM and RIPK1 Inhibitor (0.0001, 0.001, 0.01, 0.02, 0.05, 0.1, 1, 10 uM) were treated for 24 h. Cell viability was measured by Cell Counting Kit 8 (CCK-8) (Dong-in, Seoul, Korea).
Regarding `O=C1Nc2ccccc2OC[C@@H]1NC(=O)n1cc(Cc2ccccc2)cn1` [Example 1, (S)-4-benzyl-N-(4-oxo-2,3,4,5-tetrahydrobenzo[b][1,4]oxazepin-3-yl)-1H-pyrazole-1-carboxamide], the IC50 was less than 0.1 µM.
With `O=C1Nc2ccccc2OC[C@@H]1NC(=O)n1cc(Cc2cccc(F)c2)cn1` [Example 2, (S)-4-(3-fluorobenzyl)-N-(4-oxo-2,3,4,5-tetrahydrobenzo[b][1,4]oxazepin-3-yl)-11H-pyrazole-1-carboxamide] the figure was less than 0.1 µM.
With `CN1C(=O)[C@@H](NC(=O)n2cc(Cc3cccc(F)c3)cn2)COc2ccccc21` [Example 3, (S)-4-(3-fluorobenzyl)-N-(5-methyl-4-oxo-2,3,4,5-tetrahydrobenzo[b][1,4]oxazepin-3-yl)-4-1H-pyrazole-1-carboxamide] the figure was less than 0.01 µM; with `CN1C(=O)[C@@H](NC(=O)n2cc(Cc3cccc(Cl)c3)cn2)COc2ccccc21` [Example 4, (S)-4-(3-chlorobenzyl)-N-(5-methyl-4-oxo-2,3,4,5-tetrahydrobenzo[b][1,4]oxazepin-3-yl)-1H-pyrazole-1-carboxamide], less than 0.01 µM; with `Cc1cccc(Cc2cnn(C(=O)N[C@H]3COc4ccccc4N(C)C3=O)c2)c1` [Example 5, (S)—N-(5-methyl-4-oxo-2,3,4,5-tetrahydrobenzo[b][1,4]oxazepin-3-yl)-4-(3-methylbenzyl)-1H-pyrazole-1-carboxamide], less than 0.01 µM.
For `CN1C(=O)[C@@H](NC(=O)n2cc(Cc3cccc(C(F)(F)F)c3)cn2)COc2ccccc21` [Example 6, (S)—N-(5-methyl-4-oxo-2,3,4,5-tetrahydrobenzo[b][1,4]oxazepin-3-yl)-4-(3-(trifluoromethyl)benzyl)-1H-pyrazole-1-carboxamide] the value was less than 0.1 µM.
As to `CN1C(=O)[C@@H](NC(=O)n2cc(Cc3cccc(C#N)c3)cn2)COc2ccccc21` [Example 7, (S)-4-(3-cyanobenzyl)-N-(5-methyl-4-oxo-2,3,4,5-tetrahydrobenzo[b][1,4]oxazepin-3-yl)-1H-pyrazole-1-carboxamide], the IC50 was less than 0.01 µM.
With `CN1C(=O)[C@@H](NC(=O)n2cc(Cc3ccc(F)cc3)cn2)COc2ccccc21` [Example 8, (S)-4-(4-fluorobenzyl)-N-(5-methyl-4-oxo-2,3,4,5-tetrahydrobenzo[b][1,4]oxazepin-3-yl)-1H-pyrazole-1-carboxamide] the figure was less than 0.1 µM.
Take `CN1C(=O)[C@@H](NC(=O)n2cc(Cc3ccc(C#N)cc3)cn2)COc2ccccc21` [Example 9, (S)-4-(4-cyanobenzyl)-N-(5-methyl-4-oxo-2,3,4,5-tetrahydrobenzo[b][1,4]oxazepin-3-yl)-1H-pyrazole-1-carboxamide]: the IC50 is less than 0.1 µM.
Consider `O=C1Nc2c(F)cccc2OC[C@@H]1NC(=O)n1cc(Cc2ccccc2)cn1` [Example 10, (S)-4-benzyl-N-(6-fluoro-4-oxo-2,3,4,5-tetrahydrobenzo[b][1,4]oxazepin-3-yl)-1H-pyrazole-1-carboxamide], for which the IC50 is less than 0.1 µM.
For `O=C1Nc2c(F)cccc2OC[C@@H]1NC(=O)n1cc(Cc2cccc(F)c2)cn1` [Example 11, (S)—N-(6-fluoro-4-oxo-2,3,4,5-tetrahydrobenzo[b][1,4]oxazepin-3-yl)-4-(3-fluorobenzyl)-1H-pyrazole-1 carboxamide] the value was less than 0.1 µM.
For `CN1C(=O)[C@@H](NC(=O)n2cc(Cc3ccccc3)cn2)COc2cccc(F)c21` [Example 12, (S)-4-benzyl-N-(6-fluoro-5-methyl-4-oxo-2,3,4,5-tetrahydrobenzo[b][1,4]oxazepin-3-yl)-1H-pyrazole-1-carboxamide], the IC50 is less than 0.01 µM.
With `CN1C(=O)[C@@H](NC(=O)n2cc(Cc3cccc(F)c3)cn2)COc2cccc(F)c21` [Example 13, (S)—N-(6-fluoro-5-methyl-4-oxo-2,3,4,5-tetrahydrobenzo[b][1,4]oxazepin-3-yl)-4-(3-fluorobenzyl)-1H-pyrazole-1-carboxamide] the figure was less than 0.01 µM; with `O=C1Nc2c(F)cc(F)cc2OC[C@@H]1NC(=O)n1cc(Cc2ccccc2)cn1` [Example 14, (S)-4-benzyl-N-(6,8-difluoro-4-oxo-2,3,4,5-tetrahydrobenzo[b][1,4]oxazepin-3-yl)-1H-pyrazole-1-carboxamide], less than 0.1 µM.
Take `O=C1Nc2c(F)cc(F)cc2OC[C@@H]1NC(=O)n1cc(Cc2cccc(F)c2)cn1` [Example 15, (S)—N-(6,8-difluoro-4-oxo-2,3,4,5-tetrahydrobenzo[b][1,4]oxazepin-3-yl)-4-(3-fluorobenzyl)-1H-pyrazole-1-carboxamide]: the IC50 was greater than 0.1 µM.
With `CN1C(=O)[C@@H](NC(=O)n2cc(Cc3ccccc3)cn2)COc2cc(F)cc(F)c21` [Example 16, (S)-4-benzyl-N-(6,8-difluoro-5-methyl-4-oxo-2,3,4,5-tetrahydrobenzo[b][1,4]oxazepin-3-yl)-1H-pyrazole-1-carboxamide] the figure was less than 0.01 µM.
For `CN1C(=O)[C@@H](NC(=O)n2cc(Cc3cccc(F)c3)cn2)COc2cc(F)cc(F)c21` [Example 17, (S)—N-(6,8-difluoro-5-methyl-4-oxo-2,3,4,5-tetrahydrobenzo[b][1,4]oxazepin-3-yl)-4-(3-fluorobenzyl)-1H-pyrazole-1-carboxamide] the value was less than 0.01 µM; for `COc1ccc2c(c1)OC[C@H](NC(=O)n1cc(Cc3ccccc3)cn1)C(=O)N2C` [Example 18, (S)-4-benzyl-N-(8-methoxy-5-methyl-4-oxo-2,3,4,5-tetrahydrobenzo[b][1,4]oxazepin-3-yl)-1H-pyrazole-1-carboxamide], less than 0.01 µM.
For `COc1ccc2c(c1)N(C)C(=O)[C@@H](NC(=O)n1cc(Cc3ccccc3)cn1)CO2` [Example 19, (S)-4-benzyl-N-(7-methoxy-5-methyl-4-oxo-2,3,4,5-tetrahydrobenzo[b][1,4]oxazepin-3-yl)-1H-pyrazole-1-carboxamide] the value was less than 0.01 µM; for `COc1ccc2c(c1)N(C)C(=O)[C@@H](NC(=O)n1cc(Cc3cccc(F)c3)cn1)CO2` [Example 20, (S)-4-(3-fluorobenzyl)-N-(7-methoxy-5-methyl-4-oxo-2,3,4,5-tetrahydrobenzo[b][1,4]oxazepin-3-yl)-1H-pyrazole-1-carboxamide], less than 0.01 µM.
On to `CN1C(=O)[C@@H](NC(=O)n2cc(Cc3cccc(F)c3)cn2)COc2cccnc21` [Example 21, (S)-4-(3-fluorobenzyl)-N-(5-methyl-4-oxo-2,3,4,5-tetrahydropyrido[3,2-b][1,4]oxazepin-3-yl)-1H-pyrazole-1-carboxamide], for which the IC50 was less than 0.01 µM.
Consider `CN1C(=O)[C@@H](NC(=O)n2cc(Cc3ccccc3)cn2)COc2ccncc21` [Example 22, (S)-4-benzyl-N-(5-methyl-4-oxo-2,3,4,5-tetrahydropyrido[4,3-b][1,4]oxazepin-3-yl)-1H-pyrazole-1-carboxamide], for which the IC50 was less than 0.01 µM.
For `CN1C(=O)[C@@H](NC(=O)n2cc(Cc3cccc(F)c3)cn2)COc2ccncc21` [Example 23, (S)-4-(3-fluorobenzyl)-N-(5-methyl-4-oxo-2,3,4,5-tetrahydropyrido[4,3-b][1,4]oxazepin-3-yl)-1H-pyrazole-1-carboxamide] the value was less than 0.01 µM; for `CN1C(=O)[C@@H](NC(=O)n2cc(Cc3ccccc3)cn2)COc2cnccc21` [Example 24, (S)-4-benzyl-N-(1-methyl-2-oxo-1,2,3,4-tetrahydropyrido[3,4-b][1,4]oxazepin-3-yl)-1H-pyrazole-1-carboxamide], less than 0.1 µM.
For `O=C1Nc2c(F)cc(F)cc2CCC1NC(=O)n1cc(Cc2ccccc2)cn1` (stereo not drawn) [Example 25, 4-benzyl-N-(7,9-difluoro-2-oxo-2,3,4,5-tetrahydro-1H-benzo[b]azepin-3-yl)-1H-pyrazole-1-carboxamide] the value was less than 0.1 µM.
For `O=C1Nc2c(F)cc(F)cc2CC[C@@H]1NC(=O)n1cc(Cc2cccc(F)c2)cn1` [Example 26, (S)—N-(7,9-difluoro-2-oxo-2,3,4,5-tetrahydro-1H-benzo[b]azepin-3-yl)-4-(3-fluorobenzyl)-1H-pyrazole-1-carboxamide] the value was less than 0.01 µM; for `CN1C(=O)C(NC(=O)n2cc(Cc3ccccc3)cn2)CCc2cc(F)cc(F)c21` (stereo not drawn) [Example 27, 4-benzyl-N-(7,9-difluoro-1-methyl-2-oxo-2,3,4,5-tetrahydro-1H-benzo[b]azepin-3-yl)-1H-pyrazole-1-carboxamide], less than 0.01 µM; for `CN1C(=O)C(NC(=O)n2cc(Cc3cccc(F)c3)cn2)CCc2cc(F)cc(F)c21` (stereo not drawn) [Example 28, N-(7,9-difluoro-1-methyl-2-oxo-2,3,4,5-tetrahydro-1H-benzo[b]azepin-3-yl)-4-(3-fluorobenzyl)-1H-pyrazole-1-carboxamide], less than 0.01 µM.
`O=C1Nc2nccnc2CCC1NC(=O)n1cc(Cc2ccccc2)cn1` (stereo not drawn) [Example 29, 4-benzyl-N-(6-oxo-6,7,8,9-tetrahydro-5H-pyrazino[2,3-b]azepin-7-yl)-1H-pyrazole-1-carboxamide]: the IC50 is greater than 0.1 µM.
Regarding `O=C1Nc2nccnc2CCC1NC(=O)n1cc(Cc2cccc(F)c2)cn1` (stereo not drawn) [Example 30, 4-(3-fluorobenzyl)-N-(6-oxo-6,7,8,9-tetrahydro-5H-pyrazino[2,3-b]azepin-7-yl)-1H-pyrazole-1-carboxamide], the IC50 was greater than 0.1 µM.
